Holding throughout (type): in vivo
In assay [1] the test system is corn. Briefly: Greenhouse subsurface drip irrigation trial, deficit irrigated, Examples 4-8. To be noted: for % Yield Increase by Product over Untr./50% Irr. / Yield: SDI chemigated at V3/V4, 50% irrigated deficit, Azoxystrobin 261, PPZ 126, TXP 250, PBZ 12.5, TMX 70 gai/ha; for Yield compared with the control, in words: water stress regime (50% irrigated), SDI. As for the experimental part:
(§1) A greenhouse subsurface drip irrigation trial was conducted on corn to evaluate treatment effects on yield in fully irrigated vs. deficit irrigated conditions. In this experiment, standardized growth conditions were applied across all corn treatments including: soil-water availability, soil texture and composition, soil chemical and physical properties, meteorological and environmental parameters, and plant nutrition in a greenhouse. No indication of plant disease or pest damage was observed over the course of the study and no pest management program was necessary. A homogeneous sand-organic matter soil mixture (0.18% organic matter) was used as the growth medium in 55-gal containers. These containers were used as a weighing lysimeter, where daily changes in system weight were used to calculate plant transpiration. Four corn plants were grown in each 55-gal container. Three 55-gal containers (12 plants total) made up each treatment. All irrigation and chemical treatments were applied via sub-surface irrigation. Chemical treatments consisted of: azoxystrobin (Quadris), paclobutrazol (Trimmit), trinexapac-ethyl (Moddus), and propiconazole (Tilt) at maximum labeled rates.
(§2) Corn plants were grown from seed and transplanted in the 55-gal drums approximately 14 days after planting. Uniform adequate irrigation was applied up to growth stage V3/V4 to ensure plant establishment. Chemical treatment applications were applied at growth stage V3/V4 via sub-surface chemigation. At stage V3/V4, irrigation was decreased to replicate deficit water conditions across all treatments for the remainder of the study period. Irrigation was managed daily to maintain 50% plant-available water. Visual signs of abiotic plant stress were observed approximately 30 days after chemical application. All corn plants were grown to yield and cobs were harvested when kernels were uniformly dry (15% moisture content). Root architecture, specifically relative number of fine roots, was measured at within 2 weeks of harvest using a digital imaging technique. Fine roots are related to water uptake productivity, which is directly tied to the ability of the plant to access soil-water under stress.

The subject of assay [2] is corn. Briefly: Greenhouse sub-surface chemigation, yield and root architecture under deficit water, Examples 20-23. To be noted: for Yield (% difference from UTC) / Relative number of fine roots (% difference from UTC): sub-surface chemigation at V3/V4, maximum labeled rates, 50% plant-available water; for Relative number of fine roots (% difference from UTC): within 2 weeks of harvest.
Source text: as §1, with “In” for “A greenhouse subsurface drip irrigation trial was conducted on corn to evaluate treatment effects on yield in fully irrigated vs. deficit irrigated conditions. In”
as §2

For assay [3], the system named is soybean. Briefly: Sprinkler irrigation field study on soybean yield, deficit vs fully irrigated, Examples 27-28. The source says: Testing Procedure: The overall objective was to conduct an irrigation management test to study the effects of fungicides and crop enhancement products on yield, WUE, and disease control under full irrigation and deficit irrigation conditions. This was a sprinkler irrigation field study conducted on a deep silt loam soil. The test was set up to specifically quantify the impact of azoxystrobin and acibenzolar-S-methyl on soybean yield and water productivity of soybean under limited (deficit) and fully-irrigated settings. The study utilized a sprinkler irrigation system. The study was replicated three times in an […]. Irrigation control panels, chemical injection pumps, and filters were housed at the irrigation well house to manage irrigation and chemigation events.
Soil water status was monitored throughout the growing season using soil moisture sensors. Soybean variety NK S31-L7 was planted on May 11, 2011 at the rate of 150,000 seed per acre. Testing parameters, and irrigation levels were conducted according to the University of Nebraska experimental procedure [see e.g., (1) Irmak, et. al.] Moisture levels, irrigation levels, evapotranspiration, and plant health were measured throughout the growing season. Climatic variables were measured (air temperature, rainfall, solar and net radiation, relative humidity, rainfall, wind speed and direction) throughout the season. Irrigation for the fully irrigated treatments was scheduled according to need by a climatic water budget using calculated evapotranspiration as a withdrawal and with rainfall and irrigation as deposits. […] Volumetric soil water content was measured in one-foot increments to a depth of 8 ft on an approximately weekly basis throughout the crop season to determine total water use. Crop water use was calculated as the sum of irrigation, precipitation and changes in soil water between the initial and final soil water sampling dates. Water productivity (WUE) was calculated as the crop yield divided by the seasonal water use (Water Productivity (WP)=Yield/ETc). […]

Assay [4] has as its system soybean. Briefly: Lateral-move sprinkler irrigation field study on soybean, Examples 29-30. The note with it: soybean, sprinkler irrigation.
Assay [5] deals with soybean. Briefly: Sprinkler irrigation field study on soybean yield and WUE, Table 14 (treatments 31-32).
Where [6] appears, read: 60% irrigated deficit, Acibenzolar-S-methyl 10 gai/ha, Azoxy foliar 150 gai/ha + Acibenzolar-S-methyl 10 gai/ha.

SMILES strings stand for the structures. Marks after values point to notes of the source that are not given here.

As to `CC(C)(C)[C@@H](O)[C@@H](Cc1ccc(Cl)cc1)n1cncn1` (racemic) [PBZ, paclobutrazol], in the assay on corn [1], the “% Yield Increase by Product over Untr./50% Irr.” value (“% Yield Increase by Product” for short) is reported as “+16.6% Incr. over Untr./50% Irr”; the Yield is listed as 2152† Kg/Ha; the “Yield compared with the control, in words” value is “statistically higher than the control”. In the assay on corn [2], the “Yield (% difference from UTC)” value was 16.6† % and the “Relative number of fine roots (% difference from UTC)” value was 70.0† %. In the assay on corn [2] (sub-surface chemigation, abiotic stress, P values <0.001 at the 95th percentile confidence interval), the “Yield compared with the control, statistical statement” value was “statistically different from the control”.

Regarding `CSC(=O)c1cccc2nnsc12` [Acibenzolar-S-methyl, acibenzolar-S-methyl], in the assay on soybean [3] (60% Irrigation (deficit)), the “Yield, statistical statement” value was “significant difference in yield”. In addition, in the assay on soybean [3] (setting [6]), the “% Yield Increase over Untr./60% irr.” value was “+1% over Untr./60% irr” and the Yield came to 53.1 Bu./acre. In addition, the “Water productivity, in words” value in the assay on soybean [4] was “increase in water productivity”. In addition, the “Yield compared with the untreated, in words” value with soybean [5] (Azoxystrobin: foliar (2 applications) at 60% & 100% irrigated) was “differences in yield over the untreated”. Further, the “WUE differences, in words” value in the assay with soybean [5] (water deficit regime) is listed as “Good WUE differences”.

`CCCC1COC(Cn2cncn2)(c2ccc(Cl)cc2Cl)O1` (stereo not shown) [PPZ, propiconazole]: in the assay on corn [1], the “% Yield Increase by Product” value is “+3.3% Incr. over Untr./50% Irr”; the Yield was determined as 1906 Kg/Ha; the “Yield compared with the control, in words” value is “statistically higher than the control”. For the same compound, in the assay with corn [2], the “Yield (% difference from UTC)” value is 3.3% and the “Relative number of fine roots (% difference from UTC)” value is 39.4† %.

Turning to `CN1COCN(Cc2cnc(Cl)s2)/C1=N\[N+](=O)[O-]` [TMX, thiamethoxam], in the assay on corn [1], the “% Yield Increase by Product” value was “+4% Incr. over Untr./50% Irr” and the Yield was determined as 1916 Kg/Ha.
